Measurements from patent EP1007514B1, “HETEROCYCLIC KETONES AS NPY Y5 ANTAGONISTS” (BAYER CORPORATION, priority 1997, dated 1999).

Legend:
human NPY Y2 = target: T1, human NPY Y2 (Homo sapiens, UniProt P49146); assay: NPY Y2 receptor membrane binding, [125I]PYY; conditions: membrane protein; 25 pM [125I]PYY; test compounds at 5 µM final concentration; read-out: IC50 (µM) NPY receptor indicated hY2
T1 sequence (P49146 1-381): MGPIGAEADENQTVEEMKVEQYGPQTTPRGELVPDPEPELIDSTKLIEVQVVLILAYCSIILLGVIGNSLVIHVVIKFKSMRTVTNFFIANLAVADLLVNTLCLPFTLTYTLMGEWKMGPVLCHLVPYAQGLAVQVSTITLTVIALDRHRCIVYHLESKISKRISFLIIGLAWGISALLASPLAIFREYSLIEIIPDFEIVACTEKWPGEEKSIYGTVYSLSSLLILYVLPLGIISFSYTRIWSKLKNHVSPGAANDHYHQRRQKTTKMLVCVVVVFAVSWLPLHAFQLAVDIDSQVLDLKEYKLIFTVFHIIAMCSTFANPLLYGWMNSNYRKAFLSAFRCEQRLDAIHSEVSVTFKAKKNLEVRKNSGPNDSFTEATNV
Description: Assays to determine binding affinity for human NPY Y2 and Y4/PP1 receptor subtypes are performed on GF/C Millipore 96-well plates pretreated with 0.02% polyethylenimine. […] Samples consist of membrane protein, 25 pM [^125I]PYY and test compounds at 5 µM final concentration. Nonspecific binding is defined by 1 µM NPY. The binding buffer for human Y4/PP1 binding consists of 137 mM NaCl, 5.4 mM KCl, 0.44 mM KH2PO4, 1.26 mM CaCl2, 0.81 mM MgSO4, 20 mM HEPES, 1 mM dithiothreitol, 0.1% bacitracin, 100 mg/l streptomycin sulfate, 1 mg/l aprotinin, 10 mg/ml soybean trypsin inhibitor and 0.3% BSA, pH 7.4. Samples consist of membrane protein, 50 pM human [^125I] human PP (hPP:NEN DuPont, Boston MA) and test compounds diluted to a final concentration of 5 µM. One µM hPP is used to define nonspecific binding. After a 2 hour incubation at room temperature with constant mixing, the samples are aspirated on a vacuum manifold, and rinsed with ice-cold binding buffer. The amount of radioactivity in each well is quantitated with either gamma counting or liquid scintillation.

[1] = target: T2, human NPY Y1 receptor subtype (Homo sapiens, UniProt P25929); assay: NPY Y1 receptor binding, [125I]PYY on SK-N-MC cells; conditions: test compounds at 5 µM final concentration, [125I]PYY about 50 pM, read-out: IC50 (µM) NPY receptor indicated hY1
T2 construct: host or cells: SK-N-MC cells
T2 sequence (P25929 1-384): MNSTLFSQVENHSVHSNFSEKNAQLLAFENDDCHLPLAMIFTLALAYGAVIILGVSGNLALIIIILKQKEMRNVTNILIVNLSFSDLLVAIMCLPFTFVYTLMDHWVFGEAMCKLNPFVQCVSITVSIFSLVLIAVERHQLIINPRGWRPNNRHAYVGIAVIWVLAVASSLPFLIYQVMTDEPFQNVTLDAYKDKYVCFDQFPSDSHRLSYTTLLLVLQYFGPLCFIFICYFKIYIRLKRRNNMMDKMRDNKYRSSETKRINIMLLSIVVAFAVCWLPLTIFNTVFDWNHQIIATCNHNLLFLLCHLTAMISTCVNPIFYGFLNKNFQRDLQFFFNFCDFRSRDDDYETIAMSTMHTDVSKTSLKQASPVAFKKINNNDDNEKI
Description: For instance, test compounds antagonistic to human NPY Y1 receptor subtype can be identified by a modified method of Gordon et al., J. Neurochem. 55:506-513,(1990), wherein SK-N-MC cells (ATCC, Rockville, ND) are plated in 24-well plates. Once confluent, the cells are rinsed with Dulbecco's phosphate buffered saline (DPBS). Cells are then preincubated in binding buffer containing serum-free DMEM, 25 mM HEPES (pH 7.3), 0.5% bovine serum albumin (BSA), 0.1% bacitracin and 0.1mM phenylmethylsulfonyl fluoride for 30 minutes at room temperature. Test compounds at a final concentration of 5 µM, and [^125I] PYY (about 50 pM:NEN-DuPont) are added to the wells, and the cells are incubated for an additional 3 hours at room temperature, followed by rinsing with ice-cold DPBS. Nonspecific binding is defined with 1 µM NPY. After lysing the cells with 1% Triton X-100, the amount of radioactivity in the lysates is quantitated with a gamma counter.

human Y4/PP1 = human Y4/PP1 (Homo sapiens, UniProt P50391); assay: NPY Y4/PP1 receptor membrane binding, [125I] human PP; conditions: membrane protein; 50 pM [125I] human PP; test compounds at 5 µM final concentration; read-out: IC50 (µM) NPY receptor indicated hY4/pp1
Chain of human Y4/PP1 (P50391 whole entry): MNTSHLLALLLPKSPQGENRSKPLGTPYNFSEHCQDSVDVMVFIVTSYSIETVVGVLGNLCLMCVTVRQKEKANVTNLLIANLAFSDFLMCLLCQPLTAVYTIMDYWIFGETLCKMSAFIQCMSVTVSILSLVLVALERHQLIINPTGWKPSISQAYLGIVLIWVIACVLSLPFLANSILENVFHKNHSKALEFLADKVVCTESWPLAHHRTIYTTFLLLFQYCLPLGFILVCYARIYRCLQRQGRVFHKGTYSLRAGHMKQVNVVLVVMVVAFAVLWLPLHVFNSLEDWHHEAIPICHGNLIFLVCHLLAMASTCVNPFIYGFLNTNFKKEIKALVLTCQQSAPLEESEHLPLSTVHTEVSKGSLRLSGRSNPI
Description: Assays to determine binding affinity for human NPY Y2 and Y4/PP1 receptor subtypes are performed on GF/C Millipore 96-well plates pretreated with 0.02% polyethylenimine. The binding buffer for rat NPY Y2 receptor subtype binding is Krebs-Ringer bicarbonate (pH 7.4) containing 0.01% BSA and 0.005% bacitracin. Samples consist of membrane protein, 25 pM [^125I]PYY and test compounds at 5 µM final concentration. Nonspecific binding is defined by 1 µM NPY. The binding buffer for human Y4/PP1 binding consists of 137 mM NaCl, 5.4 mM KCl, 0.44 mM KH2PO4, 1.26 mM CaCl2, 0.81 mM MgSO4, 20 mM HEPES, 1 mM dithiothreitol, 0.1% bacitracin, 100 mg/l streptomycin sulfate, 1 mg/l aprotinin, 10 mg/ml soybean trypsin inhibitor and 0.3% BSA, pH 7.4. Samples consist of membrane protein, 50 pM human [^125I] human PP (hPP:NEN DuPont, Boston MA) and test compounds diluted to a final concentration of 5 µM. One µM hPP is used to define nonspecific binding. After a 2 hour incubation at room temperature with constant mixing, the samples are aspirated on a vacuum manifold, and rinsed with ice-cold binding buffer. The amount of radioactivity in each well is quantitated with either gamma counting or liquid scintillation.

Row | SMILES | IC50 (human NPY Y2) | IC50 [1] | IC50 (human Y4/PP1)
1 | Cc1ccc(SCC(C(=O)c2ncc[nH]2)c2ccccc2)cc1 (stereo not drawn) [Compound 2, (1H-Imidazol-2-yl)-2-phenyl-3-p-tolylsulfanyl-propan-1-one] | > 5 µM | > 5 µM | > 5 µM
2 | Cc1ccc(S(=O)(=O)CC(C(=O)c2nc3ccccc3s2)c2ccccc2)cc1 (stereo not drawn) [Compound 6, 1-Benzothizol-2-yl-2-phenyl-3-(toluene-4-sulfonyl)-propan-1-one] | > 5 µM | > 5 µM | > 5 µM
3 | Cc1ccc(S(=O)(=O)CC(C(=O)c2nc3cc(C)c(C)cc3[nH]2)c2ccccc2)cc1 (stereo not drawn) [Compound 7, (5,6-Dimethyl-1H-benzoimidazol-2-yl)-2-phenyl-3-(toluene-4-sulfonyl)-propan-1-one] | 8.3 µM | > 5 µM | > 5 µM
4 | O=C(c1nc2ccccc2[nH]1)C(CS(=O)(=O)c1ccccc1)c1ccccc1 (stereo not drawn) [Compound 8, 3-Benzenesulfonyl-1-(1H-benzoimidazol-2-yl)-2-phenyl-propan-1-one] | > 5 µM | > 5 µM | > 5 µM
5 | COc1ccc(S(=O)(=O)CC(C(=O)c2nc3ccccc3[nH]2)c2ccccc2)cc1 (stereo not drawn) [Compound 10, 1-(1H-Benzoimidazol-2-yl)-3-(4-methoxy-benzenesulfonyl)-2-phenyl-propan-1-one] | > 5 µM | > 5 µM | > 5 µM
6 | COc1ccc2[nH]c(C(=O)C(CS(=O)(=O)c3ccc(C)cc3)c3ccccc3)nc2c1 (stereo not drawn) [Compound 14, 1-(5-Methoxy-1H-benzoimidazol-2-yl)-2-phenyl-3-(toluene-4-sulfonyl)-propan-1-one] | > 5 µM | > 5 µM | > 5 µM
